Here are results for two compounds from ChEMBL document CHEMBL1201862, “PubChem BioAssay data set” (2004).

Holding throughout (assay type): functional
Test [1] deals with Inhibitor of nuclear factor kappa-B kinase subunit epsilon (Homo sapiens, UniProt Q14164). The test can be described thus: Navigating the Kinome. Panel member name: IKBKE.
Test [2] addresses Casein kinase I isoform alpha (Homo sapiens, UniProt P48729).
In test [3] the target is Death-associated protein kinase 3 (Homo sapiens, UniProt O43293).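 Also: measured as one member of a kinome-wide profiling panel.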
Sequence of Death-associated protein kinase 3 (O43293 whole entry, the tested form may be a part): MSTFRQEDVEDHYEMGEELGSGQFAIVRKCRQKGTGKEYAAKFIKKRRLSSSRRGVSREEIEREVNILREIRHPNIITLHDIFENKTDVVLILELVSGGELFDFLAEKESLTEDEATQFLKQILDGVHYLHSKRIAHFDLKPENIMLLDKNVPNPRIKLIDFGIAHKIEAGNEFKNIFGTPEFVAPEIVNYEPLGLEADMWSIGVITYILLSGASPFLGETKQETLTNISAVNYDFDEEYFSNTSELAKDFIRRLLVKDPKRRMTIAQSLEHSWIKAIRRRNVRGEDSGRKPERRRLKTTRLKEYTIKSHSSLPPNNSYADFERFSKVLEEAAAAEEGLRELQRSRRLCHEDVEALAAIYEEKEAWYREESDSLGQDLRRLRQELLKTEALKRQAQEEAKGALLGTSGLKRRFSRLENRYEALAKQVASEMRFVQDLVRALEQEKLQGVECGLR
In another test the target is LIM domain kinase 1 (Homo sapiens, UniProt P53667). The test can be described thus: Navigating the Kinome. Panel member name: LIMK1.
Test [4] addresses Macrophage colony-stimulating factor 1 receptor (Homo sapiens, UniProt P07333).
In test [5] the target is Serine/threonine-protein kinase TAO1 (Homo sapiens, UniProt Q7L7X3).
Another test deals with Aurora kinase A (Homo sapiens, UniProt O14965).
Sequence of Aurora kinase A (O14965 whole entry): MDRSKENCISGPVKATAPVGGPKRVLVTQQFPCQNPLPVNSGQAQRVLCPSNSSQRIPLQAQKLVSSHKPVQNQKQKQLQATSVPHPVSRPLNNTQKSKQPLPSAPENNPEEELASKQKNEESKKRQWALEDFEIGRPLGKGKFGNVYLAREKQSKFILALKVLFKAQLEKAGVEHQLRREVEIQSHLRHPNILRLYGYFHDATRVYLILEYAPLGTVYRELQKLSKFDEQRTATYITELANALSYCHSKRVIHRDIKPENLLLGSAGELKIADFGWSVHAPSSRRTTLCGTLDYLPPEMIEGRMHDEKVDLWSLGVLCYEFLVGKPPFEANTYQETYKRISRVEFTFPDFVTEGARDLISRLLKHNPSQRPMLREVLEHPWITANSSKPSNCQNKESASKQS
Test [6] has as its target Serine/threonine-protein kinase Chk1 (Homo sapiens, UniProt O14757).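 Also: measured as one member of a kinome-wide kinase profiling panel.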
The target of test [7] is Protein kinase C theta type (Homo sapiens, UniProt Q04759). The test can be described thus: Navigating the Kinome. Panel member name: PRKCQ.
Sequence of Protein kinase C theta type (Q04759 whole entry): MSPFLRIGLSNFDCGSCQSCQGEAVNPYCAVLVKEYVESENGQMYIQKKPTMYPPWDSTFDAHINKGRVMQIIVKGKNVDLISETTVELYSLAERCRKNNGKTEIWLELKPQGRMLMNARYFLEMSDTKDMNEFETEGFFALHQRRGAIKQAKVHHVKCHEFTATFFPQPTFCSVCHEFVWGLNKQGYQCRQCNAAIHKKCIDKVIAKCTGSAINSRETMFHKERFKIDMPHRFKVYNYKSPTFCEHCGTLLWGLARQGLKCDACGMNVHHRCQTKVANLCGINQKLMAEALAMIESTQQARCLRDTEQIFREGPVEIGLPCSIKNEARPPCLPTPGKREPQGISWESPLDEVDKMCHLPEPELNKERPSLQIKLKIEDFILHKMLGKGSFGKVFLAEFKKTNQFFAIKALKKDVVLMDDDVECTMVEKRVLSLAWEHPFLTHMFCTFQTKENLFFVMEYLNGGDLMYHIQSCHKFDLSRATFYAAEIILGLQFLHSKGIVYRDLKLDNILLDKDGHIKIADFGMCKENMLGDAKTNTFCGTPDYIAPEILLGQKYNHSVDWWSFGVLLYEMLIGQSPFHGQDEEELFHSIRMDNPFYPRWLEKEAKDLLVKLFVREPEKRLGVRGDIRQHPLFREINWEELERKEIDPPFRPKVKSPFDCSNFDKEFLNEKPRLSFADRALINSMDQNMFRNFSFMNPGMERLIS
For test [8], the target named is Cyclin-dependent kinase 9 (Homo sapiens, UniProt P50750).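 Also: value from the CDK9 entry of a kinome-spanning kinase panel.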
Test [9] has as its target Glycogen synthase kinase-3 alpha (Homo sapiens, UniProt P49840).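 Also: GSK3A result taken from a broad kinome-wide kinase panel.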
For test [10], the target named is Dual specificity tyrosine-phosphorylation-regulated kinase 1A (Homo sapiens, UniProt Q13627).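 Also: measured against DYRK1A as one member of a broad kinome profiling panel.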
Test [11] deals with Vascular endothelial growth factor receptor 2 (Homo sapiens, UniProt P35968).
In test [12] the target is Platelet-derived growth factor receptor beta (Homo sapiens, UniProt P09619).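 Also: value comes from a kinome panel, with PDGFRB tested as one panel member.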
Sequence of Platelet-derived growth factor receptor beta (P09619 whole entry): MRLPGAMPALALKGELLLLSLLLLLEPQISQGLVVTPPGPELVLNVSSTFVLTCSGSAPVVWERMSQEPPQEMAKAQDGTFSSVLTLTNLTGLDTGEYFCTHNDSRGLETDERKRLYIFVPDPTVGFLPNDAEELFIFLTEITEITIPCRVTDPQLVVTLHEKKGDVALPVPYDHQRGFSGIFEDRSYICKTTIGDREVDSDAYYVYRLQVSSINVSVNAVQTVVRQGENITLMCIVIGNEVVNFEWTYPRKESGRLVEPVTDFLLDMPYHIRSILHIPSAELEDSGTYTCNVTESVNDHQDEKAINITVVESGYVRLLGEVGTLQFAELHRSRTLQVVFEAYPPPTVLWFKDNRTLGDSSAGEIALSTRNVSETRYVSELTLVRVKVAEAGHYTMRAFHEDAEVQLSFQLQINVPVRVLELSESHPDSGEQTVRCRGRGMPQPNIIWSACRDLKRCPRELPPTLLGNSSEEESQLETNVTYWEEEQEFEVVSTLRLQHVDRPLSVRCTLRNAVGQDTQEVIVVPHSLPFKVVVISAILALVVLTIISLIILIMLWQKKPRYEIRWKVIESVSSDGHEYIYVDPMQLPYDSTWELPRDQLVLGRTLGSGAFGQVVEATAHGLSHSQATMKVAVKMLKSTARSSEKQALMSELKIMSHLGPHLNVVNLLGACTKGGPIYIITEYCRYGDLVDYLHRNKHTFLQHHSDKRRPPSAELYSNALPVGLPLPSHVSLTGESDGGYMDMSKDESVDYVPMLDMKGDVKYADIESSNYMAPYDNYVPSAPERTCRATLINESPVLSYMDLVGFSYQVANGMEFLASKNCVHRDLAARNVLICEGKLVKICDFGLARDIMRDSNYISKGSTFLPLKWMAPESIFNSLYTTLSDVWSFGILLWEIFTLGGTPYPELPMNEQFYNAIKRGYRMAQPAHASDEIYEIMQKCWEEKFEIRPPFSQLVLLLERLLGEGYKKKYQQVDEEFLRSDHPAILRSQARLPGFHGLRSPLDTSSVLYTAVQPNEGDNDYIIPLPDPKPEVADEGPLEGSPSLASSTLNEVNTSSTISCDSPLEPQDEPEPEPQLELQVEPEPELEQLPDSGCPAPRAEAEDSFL
Test [13] deals with cAMP-dependent protein kinase catalytic subunit alpha (Homo sapiens, UniProt P17612).
Test [14] deals with Dual specificity protein kinase CLK4 (Homo sapiens, UniProt Q9HAZ1).
Sequence of Dual specificity protein kinase CLK4 (Q9HAZ1 whole entry): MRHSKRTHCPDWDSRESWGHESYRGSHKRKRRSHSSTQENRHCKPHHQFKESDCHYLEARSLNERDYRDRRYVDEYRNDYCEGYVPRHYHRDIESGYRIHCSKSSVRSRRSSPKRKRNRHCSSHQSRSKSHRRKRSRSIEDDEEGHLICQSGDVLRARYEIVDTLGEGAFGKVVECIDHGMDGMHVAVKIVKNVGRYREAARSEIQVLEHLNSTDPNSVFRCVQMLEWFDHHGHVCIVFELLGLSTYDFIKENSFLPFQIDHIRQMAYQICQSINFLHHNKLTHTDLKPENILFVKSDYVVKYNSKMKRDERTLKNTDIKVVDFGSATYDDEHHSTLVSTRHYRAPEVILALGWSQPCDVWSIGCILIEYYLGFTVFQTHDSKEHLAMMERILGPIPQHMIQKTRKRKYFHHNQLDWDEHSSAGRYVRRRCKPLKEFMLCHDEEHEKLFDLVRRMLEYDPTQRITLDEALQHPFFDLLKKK
The target in test [15] is Dual specificity tyrosine-phosphorylation-regulated kinase 1B (Homo sapiens, UniProt Q9Y463). Briefly: Navigating the Kinome. Panel member name: DYRK1B.
Test [16] concerns the target Leukocyte tyrosine kinase receptor (Homo sapiens, UniProt P29376). Briefly: Navigating the Kinome. Panel member name: LTK.
Test [17] addresses Tyrosine-protein kinase receptor TYRO3 (Homo sapiens, UniProt Q06418).
Test [18] deals with High affinity nerve growth factor receptor (Homo sapiens, UniProt P04629).
Test [19] has as its target BDNF/NT-3 growth factors receptor (Homo sapiens, UniProt Q16620).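 Also: NTRK2 measured as one member of a broad kinome-wide kinase profiling panel.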

The structures appear in SMILES notation. Active and inactive are the calls of the source.

By Ki is commonly meant the dissociation constant of the complex between target and ligand, obtained from inhibition or displacement.

Sequence of Inhibitor of nuclear factor kappa-B kinase subunit epsilon (Q14164 whole entry, canonical isoform): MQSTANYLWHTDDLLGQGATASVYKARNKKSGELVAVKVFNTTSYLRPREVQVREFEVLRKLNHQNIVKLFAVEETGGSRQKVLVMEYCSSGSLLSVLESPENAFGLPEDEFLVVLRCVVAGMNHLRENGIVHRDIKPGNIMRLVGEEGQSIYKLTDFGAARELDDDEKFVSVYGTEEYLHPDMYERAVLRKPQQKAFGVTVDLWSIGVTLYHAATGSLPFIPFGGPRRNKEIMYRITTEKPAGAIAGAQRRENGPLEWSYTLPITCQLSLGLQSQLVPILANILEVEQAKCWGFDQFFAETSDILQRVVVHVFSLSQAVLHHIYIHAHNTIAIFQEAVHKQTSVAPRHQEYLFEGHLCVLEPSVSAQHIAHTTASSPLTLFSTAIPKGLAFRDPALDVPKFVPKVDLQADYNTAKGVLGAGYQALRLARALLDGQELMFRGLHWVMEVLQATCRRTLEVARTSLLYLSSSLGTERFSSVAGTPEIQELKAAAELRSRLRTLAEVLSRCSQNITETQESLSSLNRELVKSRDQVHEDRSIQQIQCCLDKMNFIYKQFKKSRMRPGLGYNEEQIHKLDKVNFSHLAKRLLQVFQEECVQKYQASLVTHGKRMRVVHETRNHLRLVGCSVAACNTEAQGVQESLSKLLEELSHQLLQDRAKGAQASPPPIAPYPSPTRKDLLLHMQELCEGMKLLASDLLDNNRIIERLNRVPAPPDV
Sequence of BDNF/NT-3 growth factors receptor (Q16620 whole entry): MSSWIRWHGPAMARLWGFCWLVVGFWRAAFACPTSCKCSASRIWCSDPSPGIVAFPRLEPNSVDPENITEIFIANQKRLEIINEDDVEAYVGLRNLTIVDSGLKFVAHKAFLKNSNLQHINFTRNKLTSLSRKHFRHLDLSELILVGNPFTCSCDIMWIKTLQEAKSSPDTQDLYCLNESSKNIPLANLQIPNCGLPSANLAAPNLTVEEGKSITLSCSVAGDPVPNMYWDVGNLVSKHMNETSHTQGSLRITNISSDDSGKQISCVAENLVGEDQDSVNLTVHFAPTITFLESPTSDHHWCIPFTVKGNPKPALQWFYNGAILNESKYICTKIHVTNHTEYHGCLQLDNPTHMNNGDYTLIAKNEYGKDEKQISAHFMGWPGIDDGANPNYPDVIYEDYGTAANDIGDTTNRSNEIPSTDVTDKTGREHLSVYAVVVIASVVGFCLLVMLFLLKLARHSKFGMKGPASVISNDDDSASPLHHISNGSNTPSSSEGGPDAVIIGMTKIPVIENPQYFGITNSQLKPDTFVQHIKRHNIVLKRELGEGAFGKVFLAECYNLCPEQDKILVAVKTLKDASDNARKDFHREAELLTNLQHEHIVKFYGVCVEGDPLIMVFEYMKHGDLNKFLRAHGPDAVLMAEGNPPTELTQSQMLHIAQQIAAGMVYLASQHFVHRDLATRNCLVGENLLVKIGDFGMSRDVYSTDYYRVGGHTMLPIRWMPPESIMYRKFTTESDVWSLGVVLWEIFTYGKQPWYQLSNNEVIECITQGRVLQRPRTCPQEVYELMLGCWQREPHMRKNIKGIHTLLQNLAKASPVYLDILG
Sequence of Casein kinase I isoform alpha (P48729 whole entry, canonical isoform): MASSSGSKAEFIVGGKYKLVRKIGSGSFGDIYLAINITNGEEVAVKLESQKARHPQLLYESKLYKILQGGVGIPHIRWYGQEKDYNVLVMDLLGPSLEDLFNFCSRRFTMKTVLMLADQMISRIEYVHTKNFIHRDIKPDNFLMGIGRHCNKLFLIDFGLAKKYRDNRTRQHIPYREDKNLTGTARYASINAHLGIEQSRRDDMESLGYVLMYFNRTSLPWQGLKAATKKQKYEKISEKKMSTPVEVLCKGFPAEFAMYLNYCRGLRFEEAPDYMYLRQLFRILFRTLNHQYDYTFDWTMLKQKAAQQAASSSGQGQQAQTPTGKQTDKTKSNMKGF

Turning to `CC(=O)n1ncc2cc(N)ccc21`, the Ki in [1] is 79.4 µM (active); in [2] it was 20 µM (active); in test [3], 5.01 µM (active); on LIM domain kinase 1, 3.16 µM (active); in [4] it was > 100 µM (inactive); in test [5] it was 6.31 µM (active). Moreover, the Ki on Aurora kinase A is 63.1 µM (active); in test [6], 2 µM (active); in [7] it was > 100 µM (inactive); in test [8], > 63.1 µM (inactive); in test [9], 25.1 µM (active); in [10], > 79.4 µM (inactive). Besides, the Ki in [11] was > 100 µM (inactive); in [12] it was > 79.4 µM (inactive); in [13], > 50.1 µM (inactive); in [14] it was 0.2 µM (active); in [15] it was 0.631 µM (active).
Regarding `Cn1c(N)nc2sccc21`, the Ki in test [16] is 79.4 µM (active); in [17], 79.4 µM (active); in test [18], 50.1 µM (active); in test [19], 63.1 µM (active); in [14], 20 µM (active).
